# Source: patent US20140050805A1, “COMPOSITION, GLUCOSE METABOLISM-IMPROVING AGENT, AND METHOD FOR IMPROVING GLUCOSE METABOLISM” (Lion Corporation, priority 2011, published 2014)
# What was measured:
# [1] = tested on: Hyperglycemia model mice (TSOD mouse); assay: Blood glucose level in hyperglycemia model mice (TSOD) bred on mixed feed for 5 days; format: in vivo
# Experimental: Mixed feeds of Examples 1 to 3 and Comparative Examples 1 to 4 were prepared by mixing a commercially available feed (trade name: D12450B, product of Research Diet Co.) with Panax notoginseng powder (product of MATSUURA YAKUGYO CO., LTD.) and at least one of Piper longum extract (trade name, LONG PEPPER EXTRACT POWDER MF, composition: 10% by mass of a hot water extract of Piper longum, 90% by mass of dextrin, product of MARUZEN PHARMACEUTICALS CO., LTD.) and vitamin B1 nitrate (product of Wako Pure Chemical Industries, Ltd.) in respective amounts shown in the following Table 1. The above commercially available feed only was used in Comparative Example 4.
# Hyperglycemia model mice (TSOD mouse (obtained from Institute for Animal Reproduction), 14 weeks old, 5 mice/group) were given ad libitum each of the mixed feeds of Examples 1 to 3 and Comparative Examples 1 to 4 to breed them for 5 days.
# (§1) The blood glucose levels at 10 a.m. were measured by the below-described method, before giving the mixed feed to the hyperglycemia model mice (before the start of breeding with the mixed feed) and after giving the mixed feed to the hyperglycemia model mice for 5 days (after the breeding with the mixed feed). A significance test was performed using the Dunnett's multiple test.
# Also, the difference between the blood glucose levels before the start of breeding with the mixed feed and after the breeding with the mixed feed (Δblood glucose level) was calculated using the following calculation formula.
# Δ Blood glucose level (mg/dL)=Blood glucose level before the start of breeding with the mixed feed (mg/dL)−Blood glucose level after the breeding with the mixed feed (mg/dL)
# (§2) The blood glucose level was measured with a simplified blood glucose level measuring system (trade name: CYCLIC GB SENSOR, product of Sanko Junyaku Co., Ltd.).
# [2] = tested on: Hyperglycemia model mice (KKAy mice); assay: Blood glucose level in hyperglycemia model mice (KKAy) bred on high fat diet mixed feed for 5 days; format: in vivo, mouse
# Experimental: as §2
# Mixed feeds of Examples 4 to 7 and Comparative Examples 6 to 8 were prepared by mixing a commercially available high fat diet (trade name: Quick Fat, product of CLEA Japan, Inc.) with the acid-treated Panax notoginseng product produced in Production Example 1 and at least one of Piper longum extract (trade name, LONG PEPPER EXTRACT POWDER MF, composition: 10% by mass of a hot water extract of Piper longum, 90% by mass of dextrin, product of MARUZEN PHARMACEUTICALS CO., LTD.) and vitamin B1 nitrate (product of Wako Pure Chemical Industries, Ltd.) in respective amounts shown in the following Table 2. The mixed feed of Example 8 was prepared by using Panax notoginseng powder (product of MATSUURA YAKUGYO CO., LTD.) instead of the acid-treated Panax notoginseng product of Example 4. The above commercially available high fat diet only was used in Comparative Example 5.
# Hyperglycemia model mice (KKAy mice (obtained from CLEA Japan, Inc.), 20 weeks old, 5 mice/group) were given ad libitum each of the mixed feeds of Examples 4 to 8 and Comparative Examples 5 to 8 to breed them for 5 days.
# as §1, with “in” for “by”, “same manner as in Example 1,” for “below-described method,”
# [3] = level before minus level after 5 days of mixed feed
smiles,measurement,setting,value
"Cc1ncc(C[n+]2csc(CCO)c2C)c(N)n1.O=[N+]([O-])[O-] [compound 2, vitamin B1 nitrate]",Blood glucose levels Before the start of breeding with the mixed feed,"[1]; 14 weeks old, 10 a.m., average, baseline before mixed feed",389.2 mg/dL
same,Δ Blood glucose level,[1]; [3],43.9 mg/dL
same,Blood glucose levels After the breeding with the mixed feed,"[1]; mixed feed ad libitum for 5 days, 10 a.m., average",345.3 mg/dL
"Cc1ncc(C[n+]2csc(CCO)c2C)c(N)n1.O=[N+]([O-])[O-] [compound 8, vitamin B1 nitrate]",Blood glucose levels Before the start of breeding with the mixed feed,"[2]; 20 weeks old, 10 a.m., average, baseline before mixed feed",551 mg/dL
same,Blood glucose levels After the breeding with the mixed feed,"[2]; high fat diet mixed feed ad libitum for 5 days, 10 a.m., average",501 mg/dL
same,Δ Blood glucose level,[2]; [3],50 mg/dL
